Entries after “also recorded” stand apart in the source; their conditions may differ. Where no end group is shown, it is not given here.
Assays:
α-synuclein = α-synuclein levels and co-localization in cortex after single i.p. FITC siαSyn:peptide; type: in vivo, mouse; details: single i.p. injection, 4 hours
Experimental: To determine the co-localization between fluorescein isothiocyanate (FITC)-siαSyn and cellular markers, double labeling experiments were performed as previously described (44, 45). 40 p.m-thick vibratome sections were immunolabeled with the rabbit polyclonal antibody against α-synuclein (Chemicon, affinity purified polyclonal), NeuN (neuronal marker, Millipore) or GFAP (astroglial marker, Chemicon) and the immunoreactive structures were detected with the Tyramide Signal Amplification™-Direct (Red) system (NEN Life Sciences) while the siRNA was directly visualized by the appended FITC label. Sections were imaged with a Zeiss 63X™ (N.A. 1.4) objective on an Axiovert 35™ microscope (Zeiss) with an attached MRC1024™ LSCM system (BioRad) [22].
4 hours after injection, mice were sacrificed, whole brain removed and fixed. Sections were stained for α-synuclein and the nuclear marker, DAPI and then visualized for co-localization with the FITC labeled siRNA.

[1] = Brain distribution of FITC labeled siαSyn after single i.p. injection (co-labeling NeuN, GFAP); type: in vivo, mouse
Experimental: To determine the co-localization between fluorescein isothiocyanate (FITC)-siαSyn and cellular markers, double labeling experiments were performed as previously described (44, 45). […] vibratome sections were immunolabeled with the rabbit polyclonal antibody against α-synuclein (Chemicon, affinity purified polyclonal), NeuN (neuronal marker, Millipore) or GFAP (astroglial marker, Chemicon) and the immunoreactive structures were detected with the Tyramide Signal Amplification™-Direct (Red) system (NEN Life Sciences) while the siRNA was directly visualized by the appended FITC label. Sections were imaged with a Zeiss 63X™ (N.A. 1.4) objective on an Axiovert 35™ microscope (Zeiss) with an attached MRC1024™ LSCM system (BioRad).
4 hours after injection, mice were sacrificed, whole brain removed and fixed. (A,B) Sections were stained for the neuronal marker NeuN and the nuclear stain DAPI and then visualized for co-localization with the FITC labeled siRNA. (D,E) Sections were stained for the astrocytic marker GFAP and the nuclear stain DAPI and then visualized for co-localization with the FITC labeled siRNA.

RLTRKRGLKLAGGGGGRRRRRRRRR [ApoB^11]
co-localization of FITC label of siαSyn with αSyn expressing cells (α-synuclein): co-localized with αSyn expressing cells
co-labeling of FITC labeled siαSyn RNA with astrocyte marker GFAP ([1]; 4 hours after i.p. injection): co-labeled with the astrocyte marker, GFAP in the cell body but not in the processes
cellular localization of FITC labeled siαSyn in brain (co-labeling with NeuN, GFAP) ([1]; 4 hours after single i.p. injection, 50 μg, siRNA conjugated to the named peptide): delivered siαSyn RNA to neuronal cells; also recorded: primarily to neurons and only to a lesser extent the astrocytes
FITC labeled siRNA delivered to NeuN positive neurons, compared with C2-9r peptide ([1]; α-syn tg mice, 4 hours after i.p. injection): significantly greater
